Results on one compound are retold here after EP0014443B1, “Dilutable alkyl-benzimidazolecarbamate formulation, process for its preparation and its use as biocide” (RIEDEL-DE HAEN AKTIENGESELLSCHAFT, priority 1979, dated 1980).

One series relates to holzverblauende Pilze. Kind of series: Münden strip method (Mündener Streifenmethode) on wood against blue-stain fungi. To be noted: in usual wood preservative formulation (alkyd resin, Testbenzin 60); 25 GT product of Beispiel 1 in 1000 GT, or 0,25 % BCM as comparison. An excerpt: 25 GT eines Produktes gemäß Beispiel 1 werden zu 975 GT einer üblichen Holzschutzmittelformulierung gegeben, die zusammengesetzt ist aus 140 GT eines handelsüblichen Alkyldharzes, 4 GT Zinknaphthenat als Trockner, 4 GT eines handelsüblichen Hautverhütungsmittels, 30 GT Butyldiglykol und 797 GT Testbenzin 60.
Die Wirksamkeit der so biozid ausgerüsteten Holzschutzmittelformulierung gegen holzverblauende Pilze wird nach der Mündener Streifenmethode [H. Butin, Farbe und Lack, 71 (1965), 373] geprüft. Es ergibt sich eine bewuchsfreie Eindringtiefe von 3 bis 4 mm.
Zum Vergleich wird die oben angegebene übliche Holzschutzmittelformulierung mit 0,25 % Benzimidazolcarbaminsäuremethylester versetzt und unter gleichen Bedingungen geprüft. Es werden nur Eindringtiefen von 0,5 mm festgestellt.

The nature of another series: Solubility in solvents. Type of series: physicochemical. The note with it: read-out: Löslichkeit. An excerpt: Zum Vergleich : Die Löslichkeit von BCM beträgt in Wasser 6 ppm und in Butanol 600 ppm.

Values after ≈ are worked out from the molar mass of the structure shown. Read-outs that look alike come from different tables or passages of the source.

Turning to `COC(=O)Nc1nc2ccccc2[nH]1` [II, Benzimidazolcarbaminsäuremethylester], in the series on holzverblauende Pilze, the “bewuchsfreie Eindringtiefe” value was 0,5 mm. The solubility was found to be 600 µg/mL (≈ 3140 µM) in the series “Solubility in solvents” (organic solvent or mixture, in Butanol) and 6 µg/mL (≈ 31.4 µM) in the series “Solubility in solvents” (water, in Wasser).
